# Measured values taken from the RepoRT retention time repository.
# Structures can show the parent of a compound that is named as a salt.
# Test: RP, Waters CORTECS UPLC C18, 100 × 2.1 mm, 1.6 µm, 40 °C, 0.4 mL/min, estimated dead time 0.55 min; A: water + 0.1% formic acid, pH 3; B: acetonitrile + 0.1% formic acid, pH 3; gradient (min/%B) 0/5 1.12/5 6.41/99.5 10.01/99.5
# Settings: stereoisomer not certain
row,LC retention time,Compound
1,4.49 min,CCOC(=O)Cc1c[nH]c2ccccc12 [ETHYL 3-INDOLEACETATE]
2,6.81 min,CON=C1CC2(CC3CC(CC=C(C)CC(C)C=CC=C4COC5C(O)C(C)=CC(C(=O)O3)C45O)O2)OC(C(C)=CC(C)C)C1C (stereo not drawn) [Moxidectin]
3,0.798 min,O=CC(O)C(O)C(O)CO (stereo not drawn) [ARABINOSE]
4,4.96 min,CCCCCCCCCCCC=CC(=O)OC(CC(=O)[O-])C[N+](C)(C)C [trans-2-Tetradecenoyl-L-carnitine]
5,4.13 min,CC(CCC(=O)O)C1CCC2C3C(=O)CC4CC(=O)CCC4(C)C3CC(=O)C12C (stereo not drawn) [Dehydrocholic acid]
6,3.69 min,CC12CCC(=O)C=C1CCC1C2C(=O)CC2(C)C1CCC2(O)C(=O)CO (stereo not drawn) [CORTISONE]
7,3.13 min,O=C(O)C(O)Cc1c[nH]c2ccccc12 (racemic) [DL-Indole-3-lactic acid]
8,5.78 min,CCCCCCCCCCCCCCC[n+]1cccc(S(=O)(=O)[O-])c1 [C15-APS]
9,1.79 min,CC(C)C(=O)OC(CC(=O)[O-])C[N+](C)(C)C [Isobutyryl-L-carnitine]
10,2.47 min,O=C(O)Cc1c[nH]c2ccc(O)cc12 [5-HYDROXYINDOLEACETATE]
11,3.22 min,Cc1ccc(N=c2sccn2C)c(C)c1 [Cymiazol hydrochloride]
12,6.25 min,Cc1nn(C)c(Oc2ccccc2)c1C=NOCc1ccc(C(=O)OC(C)(C)C)cc1 [Fenpyroximate]
13,3.53 min,CCNc1nc(NC(C)CC)nc(OC)n1 (stereo not drawn) [Secbumeton]
14,1.11 min,CCCC[n+]1cccc(S(=O)(=O)[O-])c1 [C4-APS]
15,2.13 min,O=Cc1ccc(O)cc1 [4-HYDROXYBENZALDEHYDE]
16,5.53 min,CC(CCCC(C)C1CCC2C3C(O)CC4=CC(=O)CCC4(C)C3CCC12C)C(=O)O (stereo not drawn) [7-Hydroxy-3-oxo-Cholest-4-en-26-oic Acid]
17,4.29 min,CCCCCCCCCC[n+]1cccc(S(=O)(=O)[O-])c1 [C10-APS]
18,3.05 min,CCCCCC(=O)OC(CC(=O)[O-])C[N+](C)(C)C [Hexanoyl-L-carnitine]
19,2.34 min,Cc1cc2nc3c(=O)[nH]c(=O)nc-3n(CC(O)C(O)C(O)COP(=O)(O)OP(=O)(O)OCC3OC(n4cnc5c(N)ncnc54)C(O)C3O)c2cc1C (stereo not drawn) [FAD]
20,4.08 min,CC(CCC(=O)NCC(=O)O)C1CCC2C3CC(O)C4CC(O)CCC4(C)C3CCC12C (stereo not drawn) [Glycohyodeoxycholic acid]
21,2.29 min,CC(=O)N[C@@H](Cc1ccc(O)cc1)C(=O)O [N-Acetyl-L-tyrosine]

row,Compound,LC retention time
1,CCC(C)C1OC2(C=CC1C)CC1CC(CC=C(C)C(OC3CC(OC)C(OC4CC(OC)C(O)C(C)O4)C(C)O3)C(C)C=CC=C3COC4C(O)C(C)=CC(C(=O)O1)C34O)O2 (stereo not drawn) [Mixture of Avermectin B1a and B1b],6.5 min
2,CC#Cc1cc(C)nc(Nc2ccccc2)n1 [Mepanipyrim],5.11 min
3,COCC(=O)N(c1c(C)cccc1C)N1CCOC1=O [Oxadixyl],3.8 min
4,Cc1cccc2sc3nncn3c12 [Tricyclazol],3.38 min
5,CCOC(=O)CCN(Cc1ccccc1)SN(C)C(=O)ON=C(C)SC [Alanycarb],5.25 min
6,O=C(NC(=O)c1c(F)cccc1F)Nc1ccc(OC(F)(F)C(F)OC(F)(F)F)c(Cl)c1 (stereo not drawn) [Novaluron],5.71 min
7,CCOP(=O)(SC(C)CC)N1CCSC1=O (stereo not drawn) [Fosthiazate],4.22 min
8,Cc1nn(-c2cc(NS(C)(=O)=O)c(Cl)cc2Cl)c(=O)n1C(F)F [Sulfentrazone],4.21 min
9,CNC(=O)Oc1ccc(N(C)C)c(C)c1 [Aminocarb],1.6 min
10,CC1(C)CCC(=Cc2ccc(Cl)cc2)C1(O)Cn1cncn1 (stereo not drawn) [Triticonazole],4.76 min
11,CCSC(=O)N1CCCCCC1 [Molinate],5.03 min
12,CCCCc1c(C)nc(NCC)nc1OS(=O)(=O)N(C)C [Bupirimate],3.29 min
13,O=C(Nc1ccccc1)N(Cc1ccc(Cl)cc1)C1CCCC1 [Pencycuron],5.69 min
14,COC(=O)Nc1nc2ccccc2[nH]1 [Carbendazim],2.38 min
15,CCCN(CCC)C(=O)SCc1ccccc1 [Prosulfocarb],5.95 min
16,COc1cc(C)c(C(=O)c2c(OC)ccc(Br)c2C)c(OC)c1OC [Metrafenone],4.52 min
17,O=C(NC(=O)c1c(F)cccc1F)Nc1cc(Cl)c(OC(F)(F)C(F)C(F)(F)F)cc1Cl (stereo not drawn) [Lufenuron],5.91 min
